This note sets out measurements from US6310037A, “Method of controlling protozoan infections using syringomycin-family lipodepsipeptides” (Utah State University, priority 1999, dated 2001).

For experiment [1], the system named is C. parvum. It counts as cell-based, C. parvum (bovine isolate). The following applies: MDBK cells; for Infection % (Day 5) / Infection % (Day 2): % of untreated control; for Infection % (Day 2): mean ± SEM. The protocol: C. parvum (bovine isolate) oocysts used in this study were originally donated by the U.S. Department of Agriculture, Ames, Iowa. The oocysts were isolated from calf manure, preserved in 2.5% potassium dichromate at 4° C., and used within 3 months of purification. Oocysts were decontaminated by suspension in 20% (vol/vol) 1.05% sodium hypochlorite on ice for 20 minutes. Oocysts were then washed three times in Hanks' balanced salt solution ("HBSS") and once in RPMI 1640 (available from Sigma, St. Louis, Mo.). Release of sporozoites was achieved by incubating oocysts in an excystation solution consisting of 0.25% (wt/vol) trypsin (available from Sigma, St. Louis, Mo.) and 0.75% (wt/vol) taurodeoxycholic acid (available from Sigma) in HBSS. The resulting suspension was incubated at 37° C. for 45 minutes and microscopically observed to confirm sporozoite release. Sporozoites were completely separated from intact oocysts and oocyst walls by passage through sterile polycarbonate filters (3 micron pore size, available from Millipore Corp., Bedford, Mass.) twice prior to inoculation of bovine fallopian tube epithelial ("BFTE") cell monolayers.
Coverslips were removed at 5, 24, 48, 72, 96, and 120 hours from the inoculated wells containing monolayers of BFTE cells. The coverslips were washed in RPMI 1640, fixed in 100% methanol for 10 minutes, rinsed twice with 25 mM PBS, and stained with an indirect immunofluorescent assay (IFA) using monoclonal antibody (Mab) 5H11. Mab 5H11 specifically reacts with an antigen present on intermediate stages of C. parvum development. Coverslips were then mounted on glass slides and examined under oil immersion (1000×), using […] microscopy. Parasites were enumerated by counting all developmental stages of C. parvum present in a single scan (67 fields) through the center of each coverslip. The data were statistically compared for significance, using analysis of variance (Fischer's protected least-significant-difference test using a "STATVIEW" statistical analysis application developed by Abacus Concepts, Inc., Berkeley, Calif.).
Madin-Darby bovine kidney (MDBK) epithelial cells were also used to culture C. parvum in this study. Dulbecco's modified Eagle medium (DMEM) with 10% FBS was used for routine passage of MDBK cells purchased from American Type Collection for Culture (Rockville, Md.). Mycoplasma contamination was periodically checked with Hoechst staining (Uphoff et al., 1992). At confluence, MDBK cells were lifted from culture flasks with trypsin, enumerated, and redistributed to assay plates. Ninety-six well cell culture plates were employed to assess cytotoxicity of testing agents or the parasite or both to host cells using neutral red staining or lactic dehydrogenase (LDH) assay.
For enumeration of C. parvum development in culture, 24-well plates were used with a sterile glass coverslip placed in each well. DMEM base was used at and post C. parvum inoculation.
A single concentration of Syr-E at 15 μg/ml was used to treat MDBK cells at pH 7 with C. parvum infection. Group 1 served as an infection control, receiving no Syr-E treatment. Syr-E was administered 1 day prior to parasite inoculation to groups 2, 4, and 5, at the inoculation day to groups 3-5, and 1 day post inoculation to groups 3 and 5, respectively. Following specified administration day(s), supernatants of corresponding wells containing Syr-E were removed and replaced with fresh DMEM base. Cytotoxicity was monitored using lactic dehydrogenase (LDH) assay on day 1 post inoculation. Three coverslips from each group were collected on days 2 and 5 post inoculation, were fixed, and were stained with the specific IFA, as described with reference to Example II.
Therefore, MDBK cells were employed to explore the inhibitory effect of Syr-E on C. parvum development in vitro, as shown in FIG. 3. […]

Experiment [2] concerns P. falciparum D6. It counts as cell-based. The following applies: D6 isolate, pH 7.0, 66 hour incubation. The text has this:
(§1) P. falciparum used in this study were two well characterized clones, W2 and D6, as described in Oduola, A. M. et al., Plasmodium falciparum: cloning by single-erythrocyte micromanipulation and heterogeneity in vitro; Exp. Parasitol. 66, 86-95 (1988), the contents of which are incorporated herein by this reference. W2 is a clone of the Indochina I isolate and is resistant to chloroquine and pyrimethamine, but susceptible to mefloquine. D6 is a clone from the Sierra I/UNC isolate and is susceptible to chloroquine and pyrimethamine, but has reduced susceptibilities to mefloquine and halofantrine.
(§2) The susceptibility of P. falciparum to Syr-E was studied using a modified antimalarial drug susceptibility screen following the procedures published by Desjardins et al., Quantitative assessment of antimalarial activity in vitro by semiautomated microdilution technique (1979), with modifications developed by Milhous et al., In vitro strategies for circumventing antimalarial drug resistance, Prog. […]
(§3) Syr-E was dissolved directly in dimethylsulfoxide (DMSO) and diluted 400 fold with complete culture media and started at a highest concentration of 50,000 ng/ml. […] The filter mats were then counted in a scintillation counter and the data downloaded with custom, automated analysis software (developed at the Walter Reed Army Institute of Research). […]

Experiment [3] deals with P. falciparum W2. It counts as cell-based. The following applies: W2 isolate, pH 7.0, 66 hour incubation.
Excerpt: as §1, §2, §3

The mark [4] stands for this setting: Group 2: Syr-E 15 μg/ml, 1 day, prior to inoculation, pH 7.
Setting [5] is: Group 3: Syr-E 15 μg/ml, 2 days, at and post inoculation, pH 7.
Setting [6] is: Group 4: Syr-E 15 μg/ml, 2 days, prior to and at inoculation, pH 7.
[7] abbreviates: Group 5: Syr-E 15 μg/ml, 3 days, prior to, at, and post inoculation, pH 7.

Structures are written as SMILES. In brackets after ≈: the same amount, converted by molar mass. Several values for one entry are separate records, joined by “and”; a condition that tells them apart may be missing. Equal values may be shown once. Read-outs that look alike come from different tables or passages of the source. Where a SMILES comes first, the peptide text is derived from it. Bridges are numbered along the chain shown (N, C = ends). [ ]: non-standard residue; d: D form. The star is where a group is joined. Asp(3S-OH) = N[C@H](C(=O)O)[C@H](O)C(=O)O; Thr(4-Cl) = N[C@H](C(=O)O)[C@H](O)CCl; X1 = CCCCCCCCC[C@@H](O)CC(=O)*; dDab = NCC[C@@H](N)C(=O)O; Dab = NCC[C@H](N)C(=O)O; Dhb = C/C=C(\N)C(=O)O

Broadly, the IC50 is the point on the concentration scale where inhibition reaches its midpoint. A lower IC50 goes with higher potency. In the case of `C/C=C1\NC(=O)[C@H](Cc2ccccc2)NC(=O)[C@H](CCCNC(=N)N)NC(=O)[C@H](CCN)NC(=O)[C@@H](CCN)NC(=O)[C@@H](CO)NC(=O)[C@@H](NC(=O)C[C@H](O)CCCCCCCCC)COC(=O)[C@H]([C@H](O)CCl)NC(=O)[C@H]([C@H](O)C(=O)O)NC1=O` [Syr-E, Syringomycin-E] (X1-S[dS][dDab][Dab]RF[Dhb][Asp(3S-OH)][Thr(4-Cl)]; ester 1-C), the “Infection % (Day 5)” value in experiment [1] (setting [4]) was 22% and 21.9%; in experiment [1] (setting [5]), 11.7%; in experiment [1] (setting [6]) it was 1.4%; in experiment [1] (setting [7]), 1.0%. Also, the “Infection % (Day 2)” value was 13% and 12.9 ± 2.7% in experiment [1] (setting [4]); 10.2 ± 2.1% in experiment [1] (setting [5]); 1.1 ± 0.2% in experiment [1] (setting [6]); 0.9 ± 0.1% in experiment [1] (setting [7]). For the same compound, the “infection percentage of the untreated control” value in experiment [1] (Syr-E 15 μg/ml, day 5 post inoculation) stood at 14.7%. For the same compound, the infection percentage entry in experiment [1] (Syr-E 15 μg/ml, treatment prior to and at the inoculation, pH 7, day not given) is given as “approximately 1%”. The IC50 in experiment [2] came to 3.03 µg/mL (≈ 2.47 µM); in experiment [3] it was 3.23 µg/mL (≈ 2.64 µM).
